According to ChEMBL document CHEMBL3992500, “Design, facile synthesis and biological evaluations of novel pyrano[3,2-a]phenazine hybrid molecules as antitumor agents” (Eur J Med Chem, 2017):

How the values were obtained:
Format in all cases: functional, cell-based
HCT-116 = test: Antiproliferative activity against human HCT116 cells after 48 hrs by MTT assay; settings: HCT-116, 48 h
MCF7 = test: Antiproliferative activity against human MCF7 cells after 48 hrs by MTT assay; settings: MCF7, 48 h
HepG2 = test: Antiproliferative activity against human HepG2 cells after 48 hrs by MTT assay; settings: HepG2, 48 h
A549 = test: Antiproliferative activity against human A549 cells after 48 hrs by MTT assay; settings: A549, 48 h

| SMILES | IC50 (HCT-116) | IC50 (MCF7) | IC50 (HepG2) | IC50 (A549) |
| --- | --- | --- | --- | --- |
| CCOC(=O)C1=C(N)Oc2c(N)cc3nc4ccccc4nc3c2C1c1cc(Br)ccc1OC (stereo not drawn) | > 50 µM | > 50 µM | 13.9 µM | > 50 µM |
| COc1cc(OC)c(C2C(C#N)=C(N)Oc3c(N)cc4nc5ccccc5nc4c32)cc1OC (stereo not drawn) | 30.6 µM | > 50 µM | 23.1 µM | 44.6 µM |
| CCOC(=O)C1=C(N)Oc2c(N)cc3nc4ccccc4nc3c2C1c1ccccc1F (stereo not drawn) | 35.6 µM | 18.7 µM | 6.3 µM | 24.5 µM |
| CC(C)c1ccc(C2C(C#N)=C(N)Oc3c(N)cc4nc5ccccc5nc4c32)cc1 (stereo not drawn) | 20.6 µM | > 50 µM | 16.2 µM | 14.5 µM |
| COc1ccc(C2C(C#N)=C(N)Oc3c(N)cc4nc5ccccc5nc4c32)cc1OC (stereo not drawn) | > 50 µM | > 50 µM | > 50 µM | > 50 µM |
| COc1ccc(C2C(C#N)=C(N)Oc3c(N)cc4nc5ccccc5nc4c32)c(OC)c1OC (stereo not drawn) | 47.1 µM | 28.1 µM | 15.3 µM | 20.3 µM |
| COc1ccc(C2C(C#N)=C(N)Oc3c(N)cc4nc5ccccc5nc4c32)cc1F (stereo not drawn) | 20.4 µM | > 50 µM | 7.8 µM | 11.3 µM |
| CCOC(=O)C1=C(N)Oc2c(N)cc3nc4ccccc4nc3c2C1c1ccc(Cl)c(Cl)c1 (stereo not drawn) | > 50 µM | 8.4 µM | 24.2 µM | 17.1 µM |
| N#CC1=C(N)Oc2c(N)cc3nc4ccccc4nc3c2C1c1cccc([N+](=O)[O-])c1 (stereo not drawn) | > 50 µM | 20.3 µM | > 50 µM | 26.6 µM |

Other lines, results leading:

| IC50 (HCT-116) | IC50 (MCF7) | IC50 (HepG2) | IC50 (A549) | SMILES |
| --- | --- | --- | --- | --- |
| 7.4 µM | 25.1 µM | 8.4 µM | 6.3 µM | N#CC1=C(N)Oc2c(N)cc3nc4ccccc4nc3c2C1c1ccccc1Cl (stereo not drawn) |
| 10.2 µM | 40.2 µM | > 50 µM | 12 µM | N#CC1=C(N)Oc2c(N)cc3nc4ccccc4nc3c2C1c1c(Cl)cccc1Cl (stereo not drawn) |
| 15.1 µM | > 50 µM | 30.4 µM | 39.1 µM | CCOC(=O)C1=C(N)Oc2c(N)cc3nc4ccccc4nc3c2C1c1ccc(CC)cc1 (stereo not drawn) |
| 12.1 µM | 25.6 µM | 6.2 µM | 5.3 µM | COc1cc(C2C(C#N)=C(N)Oc3c(N)cc4nc5ccccc5nc4c32)cc(Br)c1OC (stereo not drawn) |
| 18.2 µM | 18.6 µM | 7.4 µM | 14.5 µM | CCOC(=O)C1=C(N)Oc2c(N)cc3nc4ccccc4nc3c2C1c1ccccc1[N+](=O)[O-] (stereo not drawn) |
| 7.6 µM | 28.8 µM | > 50 µM | > 50 µM | COc1cc(C2C(C#N)=C(N)Oc3c(N)cc4nc5ccccc5nc4c32)cc(OC)c1O (stereo not drawn) |
| 9.7 µM | > 50 µM | 10.3 µM | 10.3 µM | CCOC(=O)C1=C(N)Oc2c(N)cc3nc4ccccc4nc3c2C1c1cc(Br)c(OC)c(OC)c1 (stereo not drawn) |
| 12.4 µM | > 50 µM | 40.1 µM | > 50 µM | CCOC(=O)C1=C(N)Oc2c(N)cc3nc4ccccc4nc3c2C1c1c(Cl)cccc1Cl (stereo not drawn) |
| 16.4 µM | 13.2 µM | 6.7 µM | 18.8 µM | CCOC(=O)C1=C(N)Oc2c(N)cc3nc4ccccc4nc3c2C1c1ccc([N+](=O)[O-])cc1 (stereo not drawn) |
| 12.1 µM | > 50 µM | 11.5 µM | 19.1 µM | CCOC(=O)C1=C(N)Oc2c(N)cc3nc4ccccc4nc3c2C1c1ccc(Cl)cc1Cl (stereo not drawn) |
| 15.1 µM | 39.1 µM | 9.4 µM | 21.4 µM | N#CC1=C(N)Oc2c(N)cc3nc4ccccc4nc3c2C1c1cccc(Cl)c1 (stereo not drawn) |
| 8.2 µM | 10 µM | 7.2 µM | 5.5 µM | CCOC(=O)C1=C(N)Oc2c(N)cc3nc4ccccc4nc3c2C1c1ccc(Cl)cc1 (stereo not drawn) |
| 20.1 µM | > 50 µM | 10.1 µM | 13.5 µM | CCOC(=O)C1=C(N)Oc2c(N)cc3nc4ccccc4nc3c2C1c1cc(OC)c(Br)c(OC)c1 (stereo not drawn) |
